Source: patent US11633459B2, “GIP derivatives and uses thereof” (priority 2018, dated 2023)
*1 amine or outer side, *2 acyl side, *3 side chain or, on linkers, in order; H or OH if unused. Where a SMILES comes first, the peptide text is derived from it. Where no end group is shown, it is not given here. Side-chain parts run from the residue outwards. [ ]: non-standard residue; d: D form. The star is where a group is joined. X1 = O=C(O)CCCCCCCCCCCCCCCCCCC(=O)NCC1CCC(C(=O)*)CC1; C18 diacid = O=C(O)CCCCCCCCCCCCCCCCC(=O)*; γGlu = O=C(O)[C@H](CCC(=O)[*:2])N[*:1]; Nle = CCCC[C@H](N)C(=O)O; AEEA = NCCOCCOCC(=O)O; Aib = CC(C)(N)C(=O)O

The molecules below were run against T1, human GIP receptor (Homo sapiens, UniProt P48546) (assay: In vitro potency, CRE luciferase reporter gene assay, whole BHK cells expressing human GIP receptor). Conditions: 0.2% HSA.
T1 construct: expressed in transfected cells; host or cells: BHK cells (parent line BHKTS13), clone BHK CRE luc2P hGIPR clone #5
T1 sequence (P48546 22-466): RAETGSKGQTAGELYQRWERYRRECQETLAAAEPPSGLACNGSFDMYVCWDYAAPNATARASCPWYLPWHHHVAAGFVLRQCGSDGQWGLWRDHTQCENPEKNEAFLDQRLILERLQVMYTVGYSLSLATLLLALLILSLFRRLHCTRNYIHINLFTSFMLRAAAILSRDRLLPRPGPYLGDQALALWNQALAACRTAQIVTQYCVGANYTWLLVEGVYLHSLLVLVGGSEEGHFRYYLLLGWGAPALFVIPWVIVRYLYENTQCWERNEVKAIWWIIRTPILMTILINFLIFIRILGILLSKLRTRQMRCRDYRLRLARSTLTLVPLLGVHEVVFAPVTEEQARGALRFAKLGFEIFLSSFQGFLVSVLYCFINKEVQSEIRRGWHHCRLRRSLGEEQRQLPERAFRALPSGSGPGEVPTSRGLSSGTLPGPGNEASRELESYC
Type: cell-based
Experimental: In Vitro Potency (CRE Luciferase; Whole Cells)
The in vitro potency is the measure of human GIP, GLP-1 or glucagon receptor activation, respectively, in a whole cell assay.
In vitro potency was determined by measuring the response of the human GIP, GLP-1 or glucagon receptor in a reporter gene assay in individual cell lines. […] When the respective receptor is activated it results in the production of cAMP, which in turn results in the luciferase protein being expressed. When assay incubation is completed the luciferase substrate (luciferin) is added and the enzyme converts luciferin to oxyluciferin to produce bioluminescence. The luminescence is measured as the readout for the assay.
The cells were derived from a clone containing the CRE luciferase element and were established by further transfection with the respective receptor to obtain the current clone.
The cells were cultured at 5% CO2 in Cell Culture Medium. They were aliquoted and stored in liquid nitrogen. The cells were kept in passage and were seeded out the day before each assay.
The Assay Buffer consisted of 1% ovalbumin and 0.1% Pluronic F-68 in Assay Medium with the addition of human serum albumin at twice the indicated concentrations.
1) Cells were plated at 5000 cells/well and incubated overnight.
2) Cells were washed three times in PBS.
3) Assay Medium (50 μl aliquot) with or without serum albumin was added to each well in the assay plate.
4) Stocks of the test compounds and reference compounds were diluted to a concentration of 0.2 μM in Assay Buffer. […] 8) The cells were washed three times with PBS plus some liquid in each well. 9) A 100 μl aliquot of steadylite plus reagent was added to each well of the assay plate (reagent was light sensitive). 10) Each assay plate was covered with aluminum foil to protect it from light and shaken for 30 min at room temperature. 11) Each assay plate was read in a microtiter plate reader. Calculations and Results
The data from the microtiter plate reader was transferred to GraphPad Prism software. The software performs a non-linear regression (log(agonist) vs response).
A minimum of two replicates was measured for each sample. The reported values are averages of the replicates.

Row | EC50 [nM] | Molecule
1 | 0.0213 | H-Y[Aib]EGTFISDYSIA[Nle]DKIHQQDFVK([γGlu-γGlu-γGlu-C18 diacid])WLLAQKGKENDWKHNITQ [Compound 33, N{Epsilon-24}-[(4S)-4-carboxy-4-[[(4S)-4-carboxy-4-[[(4S)-4-carboxy-4-(17-carboxyheptadecanoylamino)butanoyl]amino]butanoyl]amino]butanoyl]-[Aib2,Nle14,Lys24,Glu33]-hGIP]
2 | 0.81 | CCCC[C@H](NC(=O)[C@H](C)NC(=O)[C@@H](NC(=O)[C@H](CO)NC(=O)[C@H](Cc1ccc(O)cc1)NC(=O)[C@H](CC(=O)O)NC(=O)[C@H](CO)NC(=O)[C@@H](NC(=O)[C@H](Cc1ccccc1)NC(=O)[C@@H](NC(=O)CNC(=O)[C@H](CCC(=O)O)NC(=O)C(C)(C)NC(=O)[C@@H](N)Cc1ccc(O)cc1)[C@@H](C)O)[C@@H](C)CC)[C@@H](C)CC)C(=O)N[C@@H](CC(=O)O)C(=O)N[C@@H](CCCCN)C(=O)N[C@H](C(=O)N[C@@H](Cc1c[nH]cn1)C(=O)N[C@@H](CCC(N)=O)C(=O)N[C@@H](CCC(=O)O)C(=O)N[C@@H](CC(=O)O)C(=O)N[C@@H](Cc1ccccc1)C(=O)N[C@H](C(=O)N[C@@H](CCCCNC(=O)CC[C@H](NC(=O)CC[C@H](NC(=O)CC[C@H](NC(=O)CC[C@H](NC(=O)C1CCC(CNC(=O)CCCCCCCCCCCCCCCCCCC(=O)O)CC1)C(=O)O)C(=O)O)C(=O)O)C(=O)O)C(=O)N[C@@H](Cc1c[nH]c2ccccc12)C(=O)N[C@@H](CC(C)C)C(=O)N[C@@H](CC(C)C)C(=O)N[C@@H](C)C(=O)N[C@@H](CCC(N)=O)C(=O)N[C@@H](CCCCN)C(=O)NCC(=O)O)C(C)C)[C@@H](C)CC (stereo partly drawn) [Compound 21, N{Epsilon-24}-[(4S)-4-carboxy-4-[[(4S)-4-carboxy-4-[[(4S)-4-carboxy-4-[[(4S)-4-carboxy-4-[[4-[(19-carboxynonadecanoylamino)methyl]cyclohexanecarbonyl]amino]butanoyl]-amino]butanoyl]amino]butanoyl]amino]butanoyl]-[Aib2,Nle14,Glu20,Lys24]-hGIP(1-31)] (H-Y[Aib]EGTFISDYSIA[Nle]DKIHQEDFVK([γGlu-γGlu-γGlu-γGlu-X1])WLLAQKG-OH)
3 | 0.266 | CCCC[C@H](NC(=O)[C@H](C)NC(=O)[C@@H](NC(=O)[C@H](CO)NC(=O)[C@H](Cc1ccc(O)cc1)NC(=O)[C@H](CC(=O)O)NC(=O)[C@H](CO)NC(=O)[C@@H](NC(=O)[C@H](Cc1ccccc1)NC(=O)[C@@H](NC(=O)CNC(=O)[C@H](CCC(=O)O)NC(=O)C(C)(C)NC(=O)[C@@H](N)Cc1ccc(O)cc1)[C@@H](C)O)[C@@H](C)CC)[C@@H](C)CC)C(=O)N[C@@H](CC(=O)O)C(=O)N[C@@H](C)C(=O)N[C@H](C(=O)N[C@@H](CCCNC(=N)N)C(=O)N[C@@H](CCC(N)=O)C(=O)N[C@@H](CCC(N)=O)C(=O)N[C@@H](CC(=O)O)C(=O)N[C@@H](Cc1ccccc1)C(=O)N[C@H](C(=O)N[C@@H](CCCCNC(=O)CC[C@H](NC(=O)CC[C@H](NC(=O)CC[C@H](NC(=O)C1CCC(CNC(=O)CCCCCCCCCCCCCCCCCCC(=O)O)CC1)C(=O)O)C(=O)O)C(=O)O)C(=O)N[C@@H](Cc1c[nH]c2ccccc12)C(=O)N[C@@H](CC(C)C)C(=O)N[C@@H](CC(C)C)C(=O)N[C@@H](C)C(=O)N[C@@H](CCC(N)=O)C(=O)N[C@@H](CCCCN)C(=O)NCC(=O)O)C(C)C)[C@@H](C)CC (stereo partly drawn) [Compound 14, N{Epsilon-24}-[(4S)-4-carboxy-4-[[(4S)-4-carboxy-4-[[(4S)-4-carboxy-4-[[4-[(19-carboxynonadecanoylamino)methyl]cyclohexanecarbonyl]amino]butanoyl]amino]-butanoyl]amino]butanoyl]-[Aib2,Nle14,Ala16,Arg18,Lys24]-hGIP(1-31)] (H-Y[Aib]EGTFISDYSIA[Nle]DAIRQQDFVK([γGlu-γGlu-γGlu-X1])WLLAQKG-OH)
4 | 0.056 | H-Y[Aib]EGTFISDYSIALDKIHQQDFVK([AEEA-AEEA-γGlu-C18 diacid])WLLAQKGKKNDWKHNITQ [Compound 45, N{Epsilon-24}-[2-[2-[2-[[2-[2-[2-[[(4S)-4-carboxy-4-(17-carboxyheptadecanoylamino)butanoyl]amino]ethoxy]ethoxy]acetyl]amino]ethoxy]ethoxy]acetyl]-[Aib2,Leu14,Lys24]-hGIP]
5 | 0.014 | CCCC[C@H](NC(=O)[C@H](C)NC(=O)[C@@H](NC(=O)[C@H](CO)NC(=O)[C@H](Cc1ccc(O)cc1)NC(=O)[C@H](CC(=O)O)NC(=O)[C@H](CO)NC(=O)[C@@H](NC(=O)[C@H](Cc1ccccc1)NC(=O)[C@@H](NC(=O)CNC(=O)[C@H](CCC(=O)O)NC(=O)C(C)(C)NC(=O)[C@@H](N)Cc1ccc(O)cc1)[C@@H](C)O)[C@@H](C)CC)[C@@H](C)CC)C(=O)N[C@@H](CC(=O)O)C(=O)N[C@@H](CCCCN)C(=O)N[C@H](C(=O)N[C@@H](CCCNC(=N)N)C(=O)N[C@@H](CCC(N)=O)C(=O)N[C@@H](CCC(N)=O)C(=O)N[C@@H](CC(=O)O)C(=O)N[C@@H](Cc1ccccc1)C(=O)N[C@H](C(=O)N[C@@H](CCCCNC(=O)COCCOCCNC(=O)COCCOCCNC(=O)CC[C@H](NC(=O)C1CCC(CNC(=O)CCCCCCCCCCCCCCCCCCC(=O)O)CC1)C(=O)O)C(=O)N[C@@H](Cc1c[nH]c2ccccc12)C(=O)N[C@@H](CC(C)C)C(=O)N[C@@H](CC(C)C)C(=O)N[C@@H](C)C(=O)N[C@@H](CCC(N)=O)C(=O)N[C@@H](CCCCN)C(=O)NCC(=O)N[C@@H](CCCCN)C(=O)N[C@@H](CCC(=O)O)C(=O)N[C@@H](CCC(=O)O)C(=O)N[C@@H](CC(=O)O)C(=O)N[C@@H](Cc1c[nH]c2ccccc12)C(=O)N[C@@H](CCCCN)C(=O)N[C@@H](Cc1c[nH]cn1)C(=O)N[C@@H](CC(N)=O)C(=O)N[C@H](C(=O)N[C@H](C(=O)N[C@@H](CCC(N)=O)C(=O)O)[C@@H](C)O)[C@@H](C)CC)C(C)C)[C@@H](C)CC (stereo partly drawn) [Compound 41, N{Epsilon-24}-[2-[2-[2-[[2-[2-[2-[[(4S)-4-carboxy-4-[[4-[(19-carboxynonadecanoyl-amino)methyl]cyclohexanecarbonyl]amino]butanoyl]amino]ethoxy]ethoxy]acetyl]amino]ethoxy]ethoxy]acetyl]-[Aib2,Nle14,Arg18,Lys24,Glu33,Glu34]-hGIP]
6 | 0.022 | CCCC[C@H](NC(=O)[C@H](C)NC(=O)[C@@H](NC(=O)[C@H](CO)NC(=O)[C@H](Cc1ccc(O)cc1)NC(=O)[C@H](CC(=O)O)NC(=O)[C@H](CO)NC(=O)[C@@H](NC(=O)[C@H](Cc1ccccc1)NC(=O)[C@@H](NC(=O)CNC(=O)[C@H](CCC(=O)O)NC(=O)C(C)(C)NC(=O)[C@@H](N)Cc1ccc(O)cc1)[C@@H](C)O)[C@@H](C)CC)[C@@H](C)CC)C(=O)N[C@@H](CC(=O)O)C(=O)N[C@@H](CCCCN)C(=O)N[C@H](C(=O)N[C@@H](CCCNC(=N)N)C(=O)N[C@@H](CCC(N)=O)C(=O)N[C@@H](CCC(N)=O)C(=O)N[C@@H](CC(=O)O)C(=O)N[C@@H](Cc1ccccc1)C(=O)N[C@H](C(=O)N[C@@H](CCCCNC(=O)CC[C@H](NC(=O)CC[C@H](NC(=O)CC[C@H](NC(=O)C1CCC(CNC(=O)CCCCCCCCCCCCCCCCCCC(=O)O)CC1)C(=O)O)C(=O)O)C(=O)O)C(=O)N[C@@H](Cc1c[nH]c2ccccc12)C(=O)N[C@@H](CC(C)C)C(=O)N[C@@H](CC(C)C)C(=O)N[C@@H](C)C(=O)N[C@@H](CCC(N)=O)C(=O)N[C@@H](CCCCN)C(=O)NCC(=O)N[C@@H](CCCCN)C(=O)N[C@@H](CCC(=O)O)C(=O)N[C@@H](CCC(=O)O)C(=O)N[C@@H](CC(=O)O)C(=O)N[C@@H](Cc1c[nH]c2ccccc12)C(=O)N[C@@H](CCCCN)C(=O)N[C@@H](Cc1c[nH]cn1)C(=O)N[C@@H](CC(N)=O)C(=O)N[C@H](C(=O)N[C@H](C(=O)N[C@@H](CCC(N)=O)C(=O)O)[C@@H](C)O)[C@@H](C)CC)C(C)C)[C@@H](C)CC (stereo partly drawn) [Compound 42, N{Epsilon-24}-[(4S)-4-carboxy-4-[[(4S)-4-carboxy-4-[[(4S)-4-carboxy-4-[[4-[(19-carboxynonadecanoylamino)methyl]cyclohexanecarbonyl]amino]butanoyl]amino]butanoyl]amino]butanoyl]-[Aib2,Nle14,Arg18,Lys24,Glu33,Glu34]-hGIP]
